Measurements reported in patent US20240299504A1, “COMPOSITIONS AND METHODS FOR TREATING ALZHEIMERS DISEASE” (priority 2023, published 2024).

What was measured:
[1] = tested on: 5×FAD mice; test: Micro-computed tomography (μCT) of femurs, bone phenotype; assay type: in vivo, mouse; details: femur μCT, 6-MO female 5×FAD vs WT mice; hPTH1-34 50 μg/Kg s.c. once daily, 5 days per week from 2-MO
Description: (§1) Parathyroid hormone (human) was purchased from TOCRIS Bioscience (Cat #3011/1, Abingdon, United Kingdom). WT or 5×FAD mice (both male and female) were treated with PTH1-34 intermittently [once daily injection of hPTH1-34 (50 μg/Kg) or vehicle (0.9% sodium chloride) (as a control) by subcutaneous injection, starting at 2-MO, 5 days per week] as described previously. Mice were then subjected to behavioral tests and sacrificed for examinations of their bone and brain phenotypes at the indicated ages.
Femurs of WT and 5×FAD female mouse with or without PTH1-34 treatment were detached and fixed overnight in 10% formalin and stored in PBS for further characterization by microCT (μCT). The excised femurs were placed vertically in a 12-mm-diameter scanning holder and scanned using the Scanco μCT40 (Scanco Medical AG). Settings parameters are adjusted as previously described: […], 55 kVp, and 145 μA with an integration time of 200 ms. For the cortical analysis, the bone was scanned at the midshaft of the bone for a scan of 25 slices, and the threshold for cortical bone was set at 329. The 3D reconstruction was performed using all outlined slices and analyzed by μCT evaluation program (v.6.5-2; Scanco Medical). Data were obtained on bone volume (BV), total volume (TV), BV/TV, bone density, and cortical thickness for cortical bone. […]

[2] = tested on: ATG9A+ dystrophic neurites; test: Co-immunostaining ThioS/ATG9A, plaque-associated dystrophic neurites; assay type: in vivo, mouse; details: cortex and hippocampus, ~6 MO 5×FAD female mice vs Veh
Description: as §1
DAPI was used for nucleus staining.

Compound: CC[C@H](C)[C@H](NC(=O)[C@H](CCC(=O)O)NC(=O)[C@H](CO)NC(=O)[C@@H](NC(=O)[C@@H](N)CO)C(C)C)C(=O)N[C@@H](CCC(N)=O)C(=O)N[C@@H](CC(C)C)C(=O)N[C@@H](CCSC)C(=O)N[C@@H](Cc1cnc[nH]1)C(=O)N[C@@H](CC(N)=O)C(=O)N[C@@H](CC(C)C)C(=O)NCC(=O)N[C@@H](CCCCN)C(=O)N[C@@H](Cc1cnc[nH]1)C(=O)N[C@@H](CC(C)C)C(=O)N[C@@H](CC(N)=O)C(=O)N[C@@H](CO)C(=O)N[C@@H](CCSC)C(=O)N[C@@H](CCC(=O)O)C(=O)N[C@@H](CCCN=C(N)N)C(=O)N[C@H](C(=O)N[C@@H](CCC(=O)O)C(=O)N[C@@H](Cc1c[nH]c2ccccc12)C(=O)N[C@@H](CC(C)C)C(=O)N[C@@H](CCCN=C(N)N)C(=O)N[C@@H](CCCCN)C(=O)N[C@@H](CCCCN)C(=O)N[C@@H](CC(C)C)C(=O)N[C@@H](CCC(N)=O)C(=O)N[C@@H](CC(=O)O)C(=O)N[C@H](C(=O)N[C@@H](Cc1cnc[nH]1)C(=O)N[C@@H](CC(N)=O)C(=O)N[C@@H](Cc1ccccc1)C(=O)O)C(C)C)C(C)C [PTH1-34]
- trabecular bone mass (Tb. BV/TV) [1]: more trabecular bone mass was induced in 5×FAD mice than that in WT mice
- ATG9A+ dystrophic neurites [2]: smaller and less dense ATG9A+ dystrophic neurites
